Data reported in US20180252703A1, “AN IN VITRO 3D CELL CULTURE MODEL-BASED TUMOR RELAPSE ASSAY” (INSPHERO AG, priority 2015, published 2018).

Legend:
[1] = tested on: HCT-116 3D InSight colorectal cancer microtissues; test: Tumor relapse assay: 5-day pulsed versus 10-day continuous treatment of HCT-116 microtissues, read by size and intra-tissue ATP, relapse index ReI; type: cell-based; settings: for ReI at IC50, times higher than at IC20: ReI at IC50 relative to ReI at IC20; for tumor relapse index (ReI): 5-day pulsed treatment, growth profiles over 10 days; for growth after the 5-day treatment: at the respective IC50 concentration; for tumor re-growth after removing the compound after a 5-day treatment: lower drug concentrations: 6 nM taxol, 50 nM doxorubicin, 125 nM staurosporine, size or intra-tissue ATP content; for phenotype of re-growth after drug removal: phenotypic analysis, taxol at low concentrations (6 nM)
Protocol: (§1) Microtissues were treated in GravityTRAP™ plates with the indicated compound dilutions (n=4), leading to 0.5% DMSO in the cell culture medium. As a control, microtissues were exposed to 0.5% DMSO without a compound. Upon medium exchange, compounds were re-added where indicated. The treatment was performed over 10 days, however, for 2 tissues per group, the compound exposure was discontinued after 5 days and they were thereafter incubated in medium without compound (n=2).
(§2) GravityTRAP™ plates containing treated microtissues were scanned with Cell^3iMager (Dainippon, Japan) with a resolution of 4800 dpi. Microtissue size was assessed with the software provided by the manufacturer.
(§3) Air bubbles interfering with the size analysis were excluded manually, either by adjusting the image section to be analyzed by the software or by cropping the area designated to a microtissue after size measurement. The acquired data was normalized to the non-treated control (S=size of microtissue).
In order to determine the number of viable cells per microtissue, the amount of intracellular ATP as a measure for metabolic activity was determined by using CellTiter-Glo® Luminescent Cell Viability Assay (Promega; Madison, USA). The assay was performed according to the manufacturer's protocol with slight adaptations specific to microtissues. In brief, supernatant was removed and lysis of microtissues initiated by adding 40 μl diluted CellTiter-Glo Reagent (1:2 in PBS). The cell lysis was enhanced by pipetting up and down prior to transfer into an opaque white assay plate. […] The acquired data was normalized to the non-treated control:
To generate the tumor relapse index the growth profiles of the pulsed treatment groups were compared to the growth curves of the vehicle-only treated microtissues and the lowest maximum concentration treated group (FIG. 7). The impact of the pulsed drug treatment was set relative to the control and the maximum response of the respective drug (FIGS. 5 and 6).
To determine a tumor relapse index, the sizes (e.g., diameter, volume or area of an optical cross section) of at least one 3-dimensional cell culture or tissue in the continuous treatment group, the pulsed treatment group and the untreated control group are determined at a given point of time (endpoint measurement).
Then, (i) the difference (e.g., d2) between the size of at least one 3-dimensional cell culture or tissue in the continuous treatment group and at least one 3-dimensional cell culture or tissue in the pulsed treatment group is formed, and
(ii) the difference (e.g., d1) between the size of at least one 3-dimensional cell culture or tissue in the pulsed treatment group and at least one 3-dimensional cell culture or tissue in the untreated control group is formed.
Then, a quotient is formed out of the two differences (e.g., d1/d^2) to deliver a tumor relapse index. Such tumor relapse indices can be determined for different inhibitory concentration of the respective anti-cancer agents.

[2] = tested on: HCT-116 3D InSight colorectal cancer microtissues; test: Dose response of HCT-116 3D microtissues by size (area) after 5 days of compound exposure; type: cell-based; settings: Homo sapiens, HCT-116, 120 h; tissue size (area), after 5 days exposure
Protocol: After microtissue formation, spheroids were transferred into GravityTRAP™ plates for further experiments. Medium was refreshed at days 4, 6 and 8 post-transfer to assay plates.
From the stock solutions, two-fold serial dilutions in DMSO were prepared for each compound, leading to 200× concentrated working dilutions.
as §1
IC20 and IC50 values were determined by plotting the tissue size over the compound concentration after incubation over 5 days.
as §2, §3
Dose response based on the size (area) of the tumor microtissue were used to define IC20, IC50 and the lowest maximum response concentration [nM].

| ReI at IC50, times higher than at IC20 [1] [times] | IC50 [2] [nM] | Structure (SMILES) | tumor relapse index (ReI) ([1]; at IC20 concentration) | tumor relapse index (ReI) ([1]; at IC50 concentration) | growth after the 5-day treatment [1] | tumor removal ([1]; high concentrations, after 5 days) | tumor re-growth after removing the compound after a 5-day treatment [1] | phenotype of re-growth after drug removal [1] | IC20 [2] [nM] | re-growth compared to continuous treated counterparts ([1]; 125 nM and 500 nM, drug removed after 5 days, size and intra-tissue ATP) | capacity to re-grow after drug removal ([1]; 50 nM treated group compared with 100 nM treated group) |
| --- | --- | --- | --- | --- | --- | --- | --- | --- | --- | --- | --- |
| 26 | 12.5 | CC(=O)O[C@H]1C(=O)[C@@]2(C)[C@H]([C@H](OC(=O)c3ccccc3)[C@]3(O)C[C@H](OC(=O)[C@H](O)[C@@H](NC(=O)c4ccccc4)c4ccccc4)C(C)=C1C3(C)C)[C@]1(OC(C)=O)CO[C@@H]1C[C@@H]2O [taxol] | 0.59 | 15.3 | hardly any growth could be observed | nearly complete tumor removal | tumor re-growth was observed | regrew side-specific | 6.25 | – | – |
| – | – | CN[C@@H]1C[C@H]2O[C@@](C)([C@@H]1OC)n1c3ccccc3c3c4c(c5c6ccccc6n2c5c31)C(=O)NC4 [staurosporine] | – | 0.56 | growth occurred even in a similar extent as in the non-treated control culture | – | tumor re-growth was observed | regrew symmetrically | 31.2 | re-grew substantially | – |
| 6.6 | 200 | COc1cccc2c1C(=O)c1c(O)c3c(c(O)c1C2=O)C[C@@](O)(C(=O)CO)C[C@@H]3O[C@H]1C[C@H](N)[C@H](O)[C@H](C)O1 [doxorubicin] | 0.32 | 2.1 | the tumor was still able to grow | – | tumor re-growth was observed | regrew symmetrically | 50 | – | stronger capacity to re-grow |
